According to ChEMBL document CHEMBL3045848, “Microwave-assisted solvent-free synthesis of biologically active novel heterocycles from 3-formylchromones” (2011):
The source made the active and inactive calls. No cut-off for these calls is given here.

Legend:
Aspergillus fumigatus [1] = test: Antifungal activity against Aspergillus fumigatus at 100 ug/ml after 72 hr; type: functional; conditions: for zone of inhibition at 100 µg/mL: read-out: DIZ
Salmonella typhimurium [2] = test: Antibacterial activity against Salmonella enterica subsp. enterica serovar Typhimurium MTCC 98 at 100 ug/ml after 24 hr by filter paper disk method; type: functional; conditions: for zone of inhibition at 100 µg/mL: MTCC 98, 24 h, read-out: DIZ
Staphylococcus aureus [3] = test: Antibacterial activity against Staphylococcus aureus SA 22 at 100 ug/ml after 24 hr by filter paper disk method; type: functional; conditions: for zone of inhibition at 100 µg/mL: SA 22, 24 h, read-out: DIZ
Bacillus subtilis [4] = test: Antibacterial activity against Bacillus subtilis MTCC 121 at 100 ug/ml after 24 hr by filter paper disk method; type: functional; conditions: for zone of inhibition at 100 µg/mL: MTCC 121, 24 h, read-out: DIZ
Escherichia coli [5] = test: Antibacterial activity against Escherichia coli K-12 at 100 ug/ml after 24 hr by filter paper disk method; type: functional; conditions: for zone of inhibition at 100 µg/mL: K-12, 24 h, read-out: DIZ
Candida albicans = test: Antifungal activity against Candida albicans IOA-109 at 100 ug/ml after 18 to 48 hr; type: functional; conditions: for zone of inhibition at 100 µg/mL: read-out: DIZ
Aspergillus niger [6] = test: Antifungal activity against Aspergillus niger at 100 ug/ml after 72 hr; type: functional; conditions: for zone of inhibition at 100 µg/mL: read-out: DIZ
Aspergillus niger [7] = test: Antifungal activity against Aspergillus niger at 30 ug/disk after 72 hr; type: functional, organism-based
Aspergillus fumigatus [8] = test: Antifungal activity against Aspergillus fumigatus at 30 ug/disk after 72 hr; type: functional, organism-based
Escherichia coli [9] = test: Antibacterial activity against Escherichia coli K-12 at 30 ug/disc after 24 hr by filter paper disk method; type: functional; conditions: K-12, 24 h, read-out: DIZ
Salmonella typhimurium [10] = test: Antibacterial activity against Salmonella enterica subsp. enterica serovar Typhimurium MTCC 98 at 30 ug/disc after 24 hr by filter paper disk method; type: functional; conditions: MTCC 98, 24 h, read-out: DIZ
Bacillus subtilis [11] = test: Antibacterial activity against Bacillus subtilis MTCC 121 at 30 ug/disk after 24 hr by filter paper disk method; type: functional; conditions: MTCC 121, 24 h, read-out: DIZ
Staphylococcus aureus [12] = test: Antibacterial activity against Staphylococcus aureus SA 22 at 30 ug/disc after 24 hr by filter paper disk method; type: functional; conditions: SA 22, 24 h, read-out: DIZ

Compound	zone of inhibition at 100 µg/mL (Aspergillus fumigatus [1]) [mm]	zone of inhibition at 100 µg/mL (Salmonella typhimurium [2]) [mm]	zone of inhibition at 100 µg/mL (Staphylococcus aureus [3]) [mm]	zone of inhibition at 100 µg/mL (Bacillus subtilis [4]) [mm]	zone of inhibition at 100 µg/mL (Escherichia coli [5]) [mm]	zone of inhibition at 100 µg/mL (Candida albicans) [mm]	zone of inhibition at 100 µg/mL (Aspergillus niger [6]) [mm]	diameter of the inhibition zone (DIZ) (Aspergillus fumigatus [1])	diameter of the inhibition zone (DIZ) (Aspergillus niger [6])	diameter of the inhibition zone (DIZ) (Bacillus subtilis [4])	further results
Cc1ccc2occ(/C=C/C(=O)C3C(=O)N(C)C(=O)N(C)C3=O)c(=O)c2c1	14	12	12	16	20	12	12				
CN1C(=O)C(c2cc(-c3coc4ccccc4c3=O)[nH]n2)C(=O)N(C)C1=O		12	14	12	12			inactive	inactive		diameter of the inhibition zone (DIZ) (Candida albicans): inactive
CN1C(=O)C(C2=NNC(c3coc4ccccc4c3=O)C2)C(=O)N(C)C1=O (stereo not given)	14	12	16	13	15	14	8				
Cc1ccc2occ(C3CC(C4C(=O)N(C)C(=O)N(C)C4=O)=NN3)c(=O)c2c1 (stereo not given)	10	10	11	13	12	17			inactive		
CN1C(=O)C(C(=O)/C=C/c2coc3ccccc3c2=O)C(=O)N(C)C1=O	10	16	15	20	20	16	8				
CN1C(=O)C(C2=NN(c3nc4ccccc4s3)C(c3coc4ccccc4c3=O)C2)C(=O)N(C)C1=O (stereo not given)		9	13	10	18	14	14	inactive			
CN1C(=O)C(C(=O)C(Br)C(Br)c2coc3ccccc3c2=O)C(=O)N(C)C1=O (stereo not given)		16	8		14	15		inactive	inactive	inactive	
NYSTATIN										inactive	diameter of the inhibition zone (DIZ) (Salmonella typhimurium [2]): inactive; diameter of the inhibition zone (DIZ) (Staphylococcus aureus [3]): inactive; inhibition zone (IZ) (Aspergillus niger [7]): 18 mm; diameter of the inhibition zone (DIZ) (Escherichia coli [5]): inactive; inhibition zone (IZ) (Aspergillus fumigatus [8]): 18 mm
Cc1ccc2occ(C3CC(C4C(=O)N(C)C(=O)N(C)C4=O)=NN3c3ccccc3)c(=O)c2c1 (stereo not given)		19				15		inactive	inactive	inactive	diameter of the inhibition zone (DIZ) (Staphylococcus aureus [3]): inactive; diameter of the inhibition zone (DIZ) (Escherichia coli [5]): inactive
O=C(N[C@H](CO)[C@H](O)c1ccc([N+](=O)[O-])cc1)C(Cl)Cl [CHLORAMPHENICOL]								inactive	inactive		zone of inhibition at 30 µg/disc (Escherichia coli [9]): 25 mm; zone of inhibition at 30 µg/disc (Salmonella typhimurium [10]): 20 mm; zone of inhibition at 30 µg/disc (Bacillus subtilis [11]): 24 mm; zone of inhibition at 30 µg/disc (Staphylococcus aureus [12]): 26 mm; diameter of the inhibition zone (DIZ) (Candida albicans): inactive
CN1C(=O)C(C2=NN(c3ccccc3)C(c3coc4ccccc4c3=O)C2)C(=O)N(C)C1=O (stereo not given)	12	12			8	15			inactive	inactive	diameter of the inhibition zone (DIZ) (Staphylococcus aureus [3]): inactive
Cc1ccc2occ(C(Br)C(Br)C(=O)C3C(=O)N(C)C(=O)N(C)C3=O)c(=O)c2c1 (stereo not given)		10	12		15	17		inactive	inactive	inactive	
CN1C(=O)C(C2=NC(=O)NC(c3coc4ccccc4c3=O)C2)C(=O)N(C)C1=O (stereo not given)		11	8		15			inactive	inactive	inactive	diameter of the inhibition zone (DIZ) (Candida albicans): inactive
